Patent publication US20170333532A1, “ADP'ASE-ENHANCED APYRASE THERAPY FOR WOUNDS, MICROBIAL INFECTION, SEPSIS, AND HETEROTOPIC OSSIFICATION” (APT THERAPEUTICS, INC, priority 2014, published 2017)

Experiments:
Assay type in all cases: cell-based
[1] = test system: A. baumannii strain ATCC 19606; experiment: Killing of A. baumannii ATCC 19606 by colistin with Apyrase Agent, CFU count; settings: about 10^6 CFU/ml inoculum; Apyrase Agent 1 and 2 U/ml with colistin, or colistin alone at the same concentrations (0.25-2 μg/ml)
Protocol: Approximately 10^6 CFU/ml of A. baumannii strain ATCC 19606 is grown on solid medium culture plates in the presence of combinations of 0, 1, and 2 U/ml of Apyrase Agent and 0, 0.25, 0.5, 1, and 2 μg/ml of colistin. After incubation, the numbers of viable cells are determined by counting the colony forming units (CFU) on the plate (data provided as CFU/ml).
(§1) In this Example (and in subsequent Examples), the colistin is colistin sulfate salt, catalog number C4461 from Sigma-Aldrich (St. Louis, Mo.) and the apyrase is catalog number M0393L from New England BioLabs Inc. (Ipswich, Mass.).

[2] = test system: Burkholderia multivorans AU0801; experiment: Killing of Burkholderia multivorans AU0801 by colistin with Apyrase Agent, CFU count; settings: colistin at less than 10 μg/ml, with Apyrase Agent 2 U/ml or alone
Protocol: as §1
(§2) Burkholderia multivorans AU0801 is grown in the presence of combinations of 0 and 2 U/ml of Apyrase Agent and approximately 0 to 20 μg/ml of colistin. After incubation, the numbers of viable cells are determined by counting the colony forming units (CFU) on the plate (data provided as CFU/ml). Apyrase Agent improves the efficiency of killing Burkholderia multivorans AU0801 by colistin. Apyrase Agent increases the effectiveness of colistin at less than 10 μg/ml such that less than 10 to 100 CFU/ml are detected relative to greater than 10^5 to 10^6 in the presence of colistin alone at the same concentrations.

A. baumannii strain DMCI = experiment: Killing of A. baumannii DMCI by colistin with Apyrase Agent, CFU count; settings: about 10^6 CFU/ml inoculum; Apyrase Agent 1 and 2 U/ml with colistin, or colistin alone at the same concentrations (4-32 μg/ml)
Protocol: as §1
Approximately 10^6 CFU/ml of A. baumannii strain DMCI is grown on solid medium culture plates in the presence of combinations of 0, 1, and 2 U/ml of Apyrase Agent and 0, 4, 8, 16, and 32 μg/ml of colistin. After incubation, the numbers of viable cells are determined by counting the colony forming units (CFU) on the plate (data provided as CFU/ml).

[3] = test system: A. baumannii strain AC285; experiment: Killing of colistin-resistant A. baumannii AC285 by colistin with Apyrase Agent, CFU count; settings: colistin at less than 5-10 μg/ml, with Apyrase Agent 2 U/ml or alone
Protocol: as §1
Approximately 10^5 to 10^6 CFU/ml of the colistin-resistant A. baumannii strain AC285 is grown in the presence of combinations of 0 and 2 U/ml of Apyrase Agent and approximately 0 to 32 μg/ml of colistin. After incubation, the numbers of viable cells are determined by counting the colony forming units (CFU) on the plate (data provided as CFU/ml). Apyrase Agent improves the efficiency of killing A. baumannii strain AC285 by colistin. Apyrase Agent increases the effectiveness of colistin at less than 5-10 μg/ml such that less than 10 to 100 CFU/ml are detected relative to greater than 10^7 to 10^8 in the presence of colistin alone at the same concentrations.

A. baumannii strain VBA9 = experiment: Killing of colistin-resistant A. baumannii VBA9 by colistin with Apyrase Agent, CFU count; settings: colistin at less than 10-15 μg/ml, with Apyrase Agent 2 U/ml or alone
Protocol: as §1
Approximately 10^5 to 10^6 CFU/ml of the colistin-resistant A. baumannii strain VBA9 is grown in the presence of combinations of 0 and 2 U/ml of Apyrase Agent and approximately 0 to 32 μg/ml of colistin. After incubation, the numbers of viable cells are determined by counting the colony forming units (CFU) on the plate (data provided as CFU/ml). Apyrase Agent improves the efficiency of killing A. baumannii strain VBA9 by colistin. Apyrase Agent increases the effectiveness of colistin at less than 10-15 μg/ml such that less than 10 to 100 CFU/ml are detected relative to greater than 10^6 to 10^7 in the presence of colistin alone.

[4] = test system: Burkholderia cepacia AU1114; experiment: Killing of Burkholderia cepacia AU1114 by colistin with Apyrase Agent, CFU count; settings: colistin at less than 20 μg/ml, with Apyrase Agent 2 U/ml or alone
Protocol: as §1
as §2, with “Burkholderia cepacia AU1114 is grown” for “Burkholderia multivorans AU0801 is grown”, “killing Burkholderia cepacia AU1114 by colistin.” for “killing Burkholderia multivorans AU0801 by colistin.”, “less than 20 μg/ml such” for “less than 10 μg/ml such”

[5] = test system: Burkholderia cepacia GUIa AU0019; experiment: Killing of Burkholderia cepacia GUIa AU0019 by colistin with Apyrase Agent, CFU count; settings: colistin at less than 10 μg/ml, with Apyrase Agent 2 U/ml or alone
Protocol: as §1
as §2, with “cepacia GUIa AU0019” for “multivorans AU0801”

[6] = test system: P. aeruginosa strain AU1292; experiment: Killing of P. aeruginosa AU1292 by colistin with Apyrase Agent, CFU count; settings: colistin at less than 20 μg/ml, with Apyrase Agent 2 U/ml or alone
Protocol: as §1
P. aeruginosa strain AU1292 is grown in the presence of combinations of 0 and 2 U/ml of Apyrase Agent and approximately 0 to 20 μg/ml of colistin. After incubation, the numbers of viable cells are determined by counting the colony forming units (CFU) on the plate (data provided as CFU/ml). Apyrase Agent improves the efficiency of killing P. aeruginosa strain AU1292 by colistin. Apyrase Agent increases the effectiveness of colistin at less than 20 μg/ml such that less than 10 to 100 CFU/ml are detected relative to greater than 10^4 to 10^5 in the presence of colistin alone at the same concentrations.

In the case of colistin sulfate salt, the viable cell count [1] was “approximately 10^5 CFU/ml”, the “numbers of viable cells (CFU)” value [2] was 10^5 to 10^6 CFU/ml and the viable cell count (A. baumannii strain DMCI) was “approximately 10^7 CFU/ml”. The “numbers of viable cells (CFU)” value [3] was 10^7 to 10^8 CFU/ml, the “numbers of viable cells (CFU)” value (A. baumannii strain VBA9) was 10^6 to 10^7 CFU/ml and the “numbers of viable cells (CFU)” value [4] was 10^5 to 10^6 CFU/ml. The “numbers of viable cells (CFU)” value [5] was 10^5 to 10^6 CFU/ml and the “numbers of viable cells (CFU)” value [6] was 10^4 to 10^5 CFU/ml.
